Literature values as cited in article PMC10459069, “Comparative Serum and Brain Pharmacokinetics of Quercetin after Oral and Nasal Administration to Rats as Lyophilized Complexes with β-Cyclodextrin Derivatives and Their Blends with Mannitol/Lecithin Microparticles” (Pharmaceutics, 2023).

Experiments:
[1] = rats
[2] = set-up: method as in PMID 19720149; conditions: mice, 6-week treatment with Que-enriched diets (2 mg/g diet)
[3] = reference not given

Structure (SMILES)	Cmax/dose ratio ([1]; intragastric administration of 100 mg/kg of pure Que, ref Yang et al. (2016) 46)	levels in the brain ([1]; single oral administration of Que)	brain levels [2] [µg/g]	logP [3]
O=c1c(O)c(-c2ccc(O)c(O)c2)oc2cc(O)cc(O)c12 [Que, Quercetin]	0.03	did not reveal measurable levels	0.085	
OC[C@@H](O)[C@@H](O)[C@H](O)[C@H](O)CO [mannitol, Mannitol]				−3.4
